Measurements published in patent publication US7893024B2, “Enhancement of iron chelation therapy” (priority 2002, dated 2011).
Where “and” joins values, the source holds several entries; their conditions need not be identical. Identical values can stand only once. Counter-ions that a name gives are not always drawn.

How the values were obtained:
ferritin [1] = target: T1, ferritin (Aquarana catesbeiana, UniProt P07229); experiment: Iron release from ferritin with Desferal substituted for bipyridyl, Fe(III)-Desferal complex monitored at 430 nm; type: biochemical; details: H-Wild Type ferritin, in the absence of urea
T1 construct: made in house; host or cells: E. coli BL21-DE3-PLysS, vector pET-9a
T1 sequence (P07229 2-176): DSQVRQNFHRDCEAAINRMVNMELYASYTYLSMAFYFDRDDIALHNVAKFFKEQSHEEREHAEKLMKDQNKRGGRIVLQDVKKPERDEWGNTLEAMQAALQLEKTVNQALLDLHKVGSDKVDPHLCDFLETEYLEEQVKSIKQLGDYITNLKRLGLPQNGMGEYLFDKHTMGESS
Description: Desferal® (desferrioxamine mesylate or DFO), a chelator of Fe(III), is currently the drug of choice to remove Fe from patients with excess tissue iron accumulated from monthly transfusions to treat betaglobin gene mutations (Sickle Cell Disease and Beta Thalassemia). Positive selection has made the mutations relatively common (<10%) in areas of the world where malaria is endemic. […] In order to determine if unfolding ferritin pores increased Desferal® chelation of ferritin Fe, the chelator was substituted for bipyridyl in the mixture of NADH/FMN usually used. Formation of the Fe(III)— Desferal® complex was monitored at 430 nm, the absorbance maximum under the conditions used.

ferritin [2] = details: Crichton et al. 1980; cited from earlier work
ferritin [3] = target: T1, ferritin; experiment: Iron release from mineralized recombinant ferritin monitored as formation of Fe(II)-bipyridyl (A522 nm), NADH/FMN reductant; type: biochemical; details: for increase in the initial rate of iron release: in combination with the chelator 2,2′-bipyridine
Procedure: Briefly, as described in further detail below, recombinant ferritin was expressed, isolated, and mineralized. The mineralized, recombinant ferritin was incubated with a protein unfolding reagent (e.g., urea, guanidine, or Triton X-100). Chelator and reductant was then added to the reaction, and rates of iron release were monitored by UV absorbance detection of formation of Fe(II)-bipyridyl (A522 nm/sec).
Production of recombinant ferritin. Recombinant ferritin was expressed using bullfrog sequences as the kinetic properties have been particularly favorable for study (Takagi H., et al. (1998) J. Biol. Chem. 273:18685)(18)(19)(20). Crystallographic studies of frog and human ferritins (Trikha, J., Theil, E. C. & Allewell, N. M. (1995) J Mol Biol 248, 949-67)(Hempstead, P. D., Yewdall, S. J., Fernie, A. R., Lawson, D. M., Artymiuk, P. J., Rice, D. W., Ford, G. C., & Harrison, P. M. (1997) J. Mol. Biol. 268, 424-448) show very similar structures and mechanisms (Bou-Abdallah, F., Papaefthymiou, G. C., Scheswohl, D. M., Stanga, S. D., Arosio, P. & Chasteen, N. D. (2002) Biochem J. 364, 57-63)(Hwang, J., Krebs, C., Huynh, B. H., Edmondson, D. E., Theil, E. C. & Penner-Hahn, J. E. (2000) Science 287, 122-125)(18). […] Two proteins were compared in the study: H-wild type and H-L134P, an “open” pore protein for which the crystal structure is known (Takagi H., et al. (1998) J. Biol. Chem. 273:18685). Sequences coding H-wild type and H-L134P ferritin were inserted into the vector pET-9a and expressed in E. coli BL21-DE3-PLysS (Stratagene®). The recombinant proteins were isolated as the 24-subunit assembly without Fe (<0.5/subunit) using methods previously described (20).
Mineralization of ferritin. Recombinant ferritin was mineralized by adding a freshly prepared, acidic solution of FeSO4 (to minimize oxidation and hydrolysis) to apoferritin in buffer and incubating at room temperature for 1 hour and then overnight at 4° C., to complete hydrolysis of ferric mineral precursors (18). The final solution was 2.08 μM protein with 480 Fe/protein ([…]) in 0.1 M MOPS, 0.1M NaCl, pH=7. Sterile solutions of mineralized ferritin are stable for months to years.
Measurement of iron release rates. Rates of Fe exit from ferritin (rates of dissolving the Fe biomineral) were monitored as formation of Fe(II)-bipyridyl (A522 nm/sec). The reaction was started by mixing an equal volume of mineralized ferritin with an equal volume of a solution of a NADH (5 mM), FMN (5 mM), and bipyridyl (5 mM) as first described by Jones and Walsh (21). The initial rates of iron chelation were calculated by taking the linear ascending part of the multiphasic reaction curve, averaged from 3 independent assays/protein preparations and 2-3 independent protein preparations.
Triton X-100 and Urea. One set of reactions was treated with Triton X-100 at final concentrations of 0.1%, 1.0% or 10% (volume/volume). A second set of reactions was treated with urea at final concentrations of 1 mM, 10 mM, or 1M. A third set of reactions was treated with a control solution containing only buffer. All three sets of ferritin solutions were incubated further for 17-20 hours (i.e., overnight) at 4° C., then returned to room temperature. Iron release was initiated by the addition of 2.5 mM bipyridine, 2.5 mM NADH, and 2.5 mM FMN (final concentrations). The amount of iron released from ferritin was monitored at room temperature, over a period of one hour, by appearance of absorbance at 522 nm due to formation of the Fe(II)-bipyridyl complex.
Urea, Guanidine HCl, and Triton X-100. The effects on iron release from ferritin of urea, guanidine hydrochloride, and Triton X-100 were studied by mixing solutions of the mineralized protein with a protein unfolding reagent and incubating at room temperature for 1 hour, followed by incubating overnight at 4° C. before adding reductant and chelator. […]

HeLa cells = experiment: Cell viability by trypan blue exclusion test
Procedure: HeLa cells, cultured in DMEM medium with 10% FBS, were incubated with the protein unfolding agents for 24 hours at 37° C. in 12-well plates. Cells were treated with trypsin, fresh medium was added and the cells were suspended in the fresh DMEM medium with 10% FBS. Cell suspensions were mixed 1:4 with trypan blue in 0.85% NaCl (weight/volume), incubated 5 minutes at room temperature, then examined by light microscopy in a hemocytometer chamber. Blue cells are scored as non-viable. For each condition, 1-3 analyses were performed.

ferritin [4] = target: T1, ferritin; experiment: Subdomain unfolding of ferritin by circular dichroism (helix/coil transition); parameters: species or system bullfrog
Procedure: The effects of protein unfolding agents on subdomain unfolding of ferritin were monitored as changes in the Circular Dichroism (CD) spectra. Both wild type ferritin (H-WT) and the open pore mutant H-L134P were analyzed. Solutions of mineralized protein (2.08×10^−1 μM in 10 mM MOPS buffer, pH 7.0), were incubated with or without 1 mM urea overnight as described herein, and equilibrated for 10 minutes at the selected temperature before recording spectra between 300 nm to 200 nm. CD spectra recorded on a Pi-180 spectrophotometer (Applied Photophysics, Surrey, UK) over the temperature range of 5° C. to 65° C. Spectra were recorded in a cuvette with a 1 cm path length at protein concentrations of 2×10^−7 M, except for H-L134P, the protein with fully open pores in protein crystals, where the concentration was 4×10^−7 M to compensate for the lower signal at higher temperatures. Contributions of the solvent to the protein spectra were subtracted. Molar ellipticities at 220 nm were determined from the optical rotation, and the percent alpha helix content was calculated as described by Frére et al (Frere, V., Sourgen, F., Monnot, M., Troalen, F. & Fermandjian, S. (1995) J Biol Chem 270, 17502-17507) and Zhong and Johnson (Zhong, L. & Johnson, W. C. J. (1992) Proc Natl Acad Sci USA 89, 4462-4465). Curves were fit to the data using Sigmaplot 8.0. Fits and data matched with P<0.001. Data presented for H-L 134P ferritin are representative of two sets of measurements on one preparation and the data for the H-wild type protein, with and without urea, are representative of 3 independent protein preparations.

ferritin [5] = target: T1, ferritin; experiment: Fe uptake and mineralization / Fe(II) oxidation at the ferroxidase site (A650); type: biochemical, bullfrog
Procedure: The temperature of the helix coil/transition in the pore was lower in both H-L134P protein and the wild type protein +1 mM urea (FIG. 3B) and is in the physiological range. […] However, the stability of the partially unfolded H-L 134P protein was lower, and loss of helix continued between 45° C. and 65° C. […] Rates were 1.9±0.1×10^−3, 2.93±0.1×10^−3 and 4.68±0.06×10^−3 mmoles/second for H-WT ferritin+1 mM urea, H-L134P ferritin and Wild Type H ferritin+1M urea, respectively (FIGS. 2A, B). The local nature of the helix/coil transition induced by 1 mM urea observed between 35° C. and 50° C. (FIG. 3B), is emphasized by the small effects on other ferritin functions such as Fe uptake and mineralization where the rates were 0.67±0.01 and 0.57±0.01 ΔA650s^−1 for zero and 10 mM urea, respectively, for 480 Fe/protein.

[6] = 1M NaCl, MOPS buffer (data not shown)
[7] = 1.0 mM to 1 M urea or guanidine

For `CC(=O)N(O)CCCCCNC(=O)CCC(=O)N(O)CCCCCNC(=O)CCC(=O)N(O)CCCCCN` [Desferal®, desferrioxamine mesylate], the “Fe that could be chelated” value (ferritin [1]) is listed as 10% and the “Fe removal from ferritin in solution” value (ferritin [2]) is listed as “removes little Fe”.
With `[Cl-].[Na+]` [NaCl, Sodium chloride, reference compound] the “initial rate of Fe(II)-bipyridyl formation” value (ferritin [3]; [6]) was “decreased” and the “total amount of Fe chelated” value (ferritin [3]; [6]) was “decreased”.
In the case of `Cl.N=C(N)N` [guanidine, guanidine hydrochloride], the “effect on formation rate of Fe(II)-bipyridyl” value (ferritin [3]; Gd.HCl at 0.1 mM) is reported as “increased rates significantly”, the “effect on ferritin iron release (formation rate of Fe(II)-bipyridyl)” value (ferritin [3]; Gd.HCl at 1 and 10 mM) is reported as “comparable to the effect of 1 and 10 mM urea” and the “Average % nonviable cells” value (HeLa cells; 1 mM, 24 hours at 37° C.) is reported as 6%. The “cell viability versus cells in normal medium” value (HeLa cells; indicated concentrations (1 mM)) was “No significant difference”.
With `NC(N)=O` [urea] the “time for removal of >95% of the Fe” value (ferritin [3]; 1 mM urea) was 33 min, the “time for removal of >95% of the Fe” value (ferritin [3]; 10 mM urea) was 13 min and the “increase over the initial rate without urea” value (ferritin [3]; 1 M urea) was 4.81 fold. The “time for removal of >95% of the Fe” value (ferritin [3]; 1 M urea) was 4 min, the “initial rate of Fe(II) bipyridyl formation” value (ferritin [3]; 2 M urea) was 1.02±0.11×10^−3 mmoles/second and the “time for removal of >95% of the Fe” value (ferritin [3]; 2 M urea) was 20 min. For the same compound, the “initial rate of Fe(II) bipyridyl formation” value (ferritin [3]; H-WT ferritin, 1 mM urea) was 1.90±0.11×10^−3 mmole/second and 1.9±0.1×10^−3 mmole/second, the “initial rate of Fe(II) bipyridyl formation” value (ferritin [3]; H-WT ferritin, 1 M urea) was 4.68±0.06×10^−3 mmoles/second and the “decrease in the time to release 50% of the total iron in ferritin” value (ferritin [3]; chelator 2,2′-bipyridine, absorbance at 522 nm=0.4) was 10 fold. For the same compound, the “increase in the initial rate of iron release” value (ferritin [3]) was 2-4 fold, the most effective concentrations (ferritin [3]; urea, enhancement of iron release) was 1 to 1000 mM and the “Fe(II)-bipyridyl formation in the absence of FMN/NADH” value (ferritin [3]; urea-treated protein, no reductant) was “No Fe(II)-bipyridyl formed”. The “downshift of a helix/coil transition” value (ferritin [4]; [7]) was 10 °C, the “helix/coil transition temperature after downshift” value (ferritin [4]; [7]) was 43 °C and the “Tm (midpoint) of decrease in helix structure” value (ferritin [4]; WT ferritin, 1 mM urea) was 41 °C. For the same compound, the helix loss (ferritin [4]; WT ferritin, 1 mM urea) was roughly 10%, the “increase of transition temperature in the absence of urea versus 1 mM urea” value (ferritin [4]; wild type ferritin) was 12 °C and the “rate of Fe uptake and mineralization” value (ferritin [5]; 10 mM urea, 480 Fe/protein) was 0.57±0.01 ΔA650s^−1. For the same compound, the “Fe(II) oxidation, a measure of Fe(II) entry and binding to the ferroxidase site” value (ferritin [5]; urea-treated ferritin) was “slightly inhibited”.
For Triton X-100, the most effective concentration (ferritin [3]; Triton X-100, enhancement of iron release) was 1.0-10 % (volume/volume), the “effect on ferritin iron release (formation rate of Fe(II)-bipyridyl)” value (ferritin [3]; Triton X-100 at 1% and 10%) was “comparable to the effect of 1 and 10 mM urea” and the “increase in the initial rate of iron release” value (ferritin [3]) was 2-3 fold. The toxicity to cells (HeLa cells; 1.0% and 10% (data not shown)) was “toxic”.
